Assay results taken from ChEMBL document CHEMBL5465560, “Selectivity Literature for EUbOPEN Chemogenomic Library” (2024).
pIC50: −log10 of the molar value. Each block holds one compound with its values, some of them ahead of it.

Experiments:
[1] = biological target: T1, 5-hydroxytryptamine receptor 1A (Homo sapiens) (UniProt P08908); assay: Selectivity interaction (Eurofins CEREP Diversity Profile (receptors and ion channels)) EUB0000279b HTR1A; conditions: at 10 µM
T1 sequence (whole entry): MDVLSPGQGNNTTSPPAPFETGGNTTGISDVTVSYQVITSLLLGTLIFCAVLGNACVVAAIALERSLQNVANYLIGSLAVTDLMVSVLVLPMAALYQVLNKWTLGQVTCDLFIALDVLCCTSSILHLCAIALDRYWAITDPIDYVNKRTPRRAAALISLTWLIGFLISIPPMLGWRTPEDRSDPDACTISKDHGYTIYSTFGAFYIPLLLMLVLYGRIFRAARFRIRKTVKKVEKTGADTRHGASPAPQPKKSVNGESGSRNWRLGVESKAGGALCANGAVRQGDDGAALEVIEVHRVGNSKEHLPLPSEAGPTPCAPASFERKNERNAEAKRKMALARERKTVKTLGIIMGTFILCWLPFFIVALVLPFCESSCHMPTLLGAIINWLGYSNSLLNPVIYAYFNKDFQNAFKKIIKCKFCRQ

[2] = biological target: Ephrin type-A receptor 2 (Homo sapiens) (UniProt P29317); assay: Selectivity interaction (KinomeScan (DiscoverX)) EUB0000607a EPHA2; conditions: at 10 µM
[3] = biological target: SRSF protein kinase 3 (Homo sapiens) (UniProt Q9UPE1); assay: Selectivity interaction (KinomeScan (DiscoverX)) EUB0000607a SRPK3; conditions: at 10 µM
[4] = biological target: T2, 3-phosphoinositide-dependent protein kinase 1 (Homo sapiens) (UniProt O15530); conditions: at 10 µM
T2 sequence (whole entry): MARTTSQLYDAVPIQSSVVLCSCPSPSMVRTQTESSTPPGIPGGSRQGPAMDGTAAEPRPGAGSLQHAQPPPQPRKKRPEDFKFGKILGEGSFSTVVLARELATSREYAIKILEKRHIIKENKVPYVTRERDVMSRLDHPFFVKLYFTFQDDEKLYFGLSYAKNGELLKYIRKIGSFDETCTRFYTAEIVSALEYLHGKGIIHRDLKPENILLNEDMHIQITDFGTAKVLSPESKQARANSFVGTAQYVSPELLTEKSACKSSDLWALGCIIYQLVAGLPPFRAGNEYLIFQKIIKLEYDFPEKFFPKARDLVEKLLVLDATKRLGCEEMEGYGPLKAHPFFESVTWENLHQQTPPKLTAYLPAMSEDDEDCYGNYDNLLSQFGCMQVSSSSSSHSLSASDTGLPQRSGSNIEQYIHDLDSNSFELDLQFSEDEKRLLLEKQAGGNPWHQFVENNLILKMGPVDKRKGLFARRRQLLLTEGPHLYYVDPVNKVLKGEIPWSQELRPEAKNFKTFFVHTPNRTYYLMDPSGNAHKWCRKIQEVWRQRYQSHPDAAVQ

[5] = biological target: Angiopoietin-1 receptor (Homo sapiens) (UniProt Q02763); assay: Selectivity interaction (Millipore kinase profiler) EUB0000124b TEK; conditions: at 10 µM
[6] = biological target: T3, Dual specificity protein kinase TTK (Homo sapiens) (UniProt P33981); assay: Selectivity interaction (Ambit KINOMEscan and KiNATiv profiling in Jurkat cells) EUB0000090b TTK; type: cell-based; conditions: at 1 µM
T3 sequence (whole entry): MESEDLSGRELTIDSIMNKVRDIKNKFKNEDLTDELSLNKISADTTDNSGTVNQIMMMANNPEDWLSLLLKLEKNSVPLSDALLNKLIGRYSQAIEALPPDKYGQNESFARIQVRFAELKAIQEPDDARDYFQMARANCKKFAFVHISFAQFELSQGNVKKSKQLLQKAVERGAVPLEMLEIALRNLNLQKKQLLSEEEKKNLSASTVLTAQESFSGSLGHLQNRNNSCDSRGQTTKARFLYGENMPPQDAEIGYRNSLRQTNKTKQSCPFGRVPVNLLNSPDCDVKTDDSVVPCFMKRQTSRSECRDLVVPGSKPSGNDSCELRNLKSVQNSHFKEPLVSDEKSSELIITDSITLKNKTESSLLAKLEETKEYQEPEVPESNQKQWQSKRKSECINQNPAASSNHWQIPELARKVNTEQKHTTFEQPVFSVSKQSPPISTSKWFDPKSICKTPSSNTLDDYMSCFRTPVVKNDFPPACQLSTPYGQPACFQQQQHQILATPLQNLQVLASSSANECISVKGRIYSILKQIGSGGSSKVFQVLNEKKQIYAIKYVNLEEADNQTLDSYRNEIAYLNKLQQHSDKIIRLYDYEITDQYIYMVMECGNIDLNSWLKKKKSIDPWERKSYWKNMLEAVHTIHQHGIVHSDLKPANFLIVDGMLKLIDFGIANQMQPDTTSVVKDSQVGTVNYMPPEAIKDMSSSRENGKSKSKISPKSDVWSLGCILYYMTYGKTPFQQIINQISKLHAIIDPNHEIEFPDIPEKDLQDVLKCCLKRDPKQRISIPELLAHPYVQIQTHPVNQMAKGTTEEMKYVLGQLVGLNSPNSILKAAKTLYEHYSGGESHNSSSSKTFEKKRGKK

[7] = biological target: Mitogen-activated protein kinase 11 (Homo sapiens) (UniProt Q15759); assay: Selectivity interaction (KinomeScan (DiscoverX)) EUB0000655a MAPK11; conditions: at 10 µM
[8] = biological target: Eukaryotic translation initiation factor 2-alpha kinase 3 (Homo sapiens, UniProt Q9NZJ5)
[9] = biological target: T4, Tyrosine-protein kinase ITK/TSK (Homo sapiens) (UniProt Q08881); assay: Selectivity interaction (KinomeScan (DiscoverX)) EUB0000618a ITK; conditions: at 10 µM
T4 sequence (whole entry): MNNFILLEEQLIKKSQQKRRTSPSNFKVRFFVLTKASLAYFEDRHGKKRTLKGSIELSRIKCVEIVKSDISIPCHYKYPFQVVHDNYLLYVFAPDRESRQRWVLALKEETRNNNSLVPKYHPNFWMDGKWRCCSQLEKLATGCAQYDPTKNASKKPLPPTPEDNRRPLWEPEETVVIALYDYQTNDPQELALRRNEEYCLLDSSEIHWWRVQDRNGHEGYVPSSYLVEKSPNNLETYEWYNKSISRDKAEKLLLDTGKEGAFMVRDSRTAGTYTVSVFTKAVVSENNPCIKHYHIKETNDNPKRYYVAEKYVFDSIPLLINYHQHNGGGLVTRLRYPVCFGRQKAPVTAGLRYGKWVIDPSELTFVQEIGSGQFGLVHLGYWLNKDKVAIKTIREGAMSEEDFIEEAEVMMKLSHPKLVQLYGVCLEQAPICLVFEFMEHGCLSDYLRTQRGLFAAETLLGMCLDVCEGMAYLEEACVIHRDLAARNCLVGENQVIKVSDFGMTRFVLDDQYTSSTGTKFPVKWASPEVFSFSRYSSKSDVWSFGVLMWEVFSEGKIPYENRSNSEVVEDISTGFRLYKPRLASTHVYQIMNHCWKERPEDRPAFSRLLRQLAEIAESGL

[10] = biological target: Dual specificity mitogen-activated protein kinase kinase 2 (Homo sapiens) (UniProt P36507); assay: Selectivity interaction (KinomeScan (DiscoverX)) EUB0001619a MAP2K2; conditions: at 1 µM
Sequence of Dual specificity mitogen-activated protein kinase kinase 2 (Homo sapiens) (P36507 whole entry): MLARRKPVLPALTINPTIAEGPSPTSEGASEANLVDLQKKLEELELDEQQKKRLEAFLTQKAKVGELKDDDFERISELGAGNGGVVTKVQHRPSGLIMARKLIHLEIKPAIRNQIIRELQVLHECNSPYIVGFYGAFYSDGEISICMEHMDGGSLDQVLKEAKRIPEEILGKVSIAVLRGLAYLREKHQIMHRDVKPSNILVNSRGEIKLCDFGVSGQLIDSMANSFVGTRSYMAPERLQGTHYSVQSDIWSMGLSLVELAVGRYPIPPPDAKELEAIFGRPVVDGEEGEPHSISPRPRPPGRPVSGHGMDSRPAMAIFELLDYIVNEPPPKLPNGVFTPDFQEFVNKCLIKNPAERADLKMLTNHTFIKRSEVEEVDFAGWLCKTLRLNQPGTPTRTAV

Sequence of Ephrin type-A receptor 2 (Homo sapiens) (P29317 whole entry): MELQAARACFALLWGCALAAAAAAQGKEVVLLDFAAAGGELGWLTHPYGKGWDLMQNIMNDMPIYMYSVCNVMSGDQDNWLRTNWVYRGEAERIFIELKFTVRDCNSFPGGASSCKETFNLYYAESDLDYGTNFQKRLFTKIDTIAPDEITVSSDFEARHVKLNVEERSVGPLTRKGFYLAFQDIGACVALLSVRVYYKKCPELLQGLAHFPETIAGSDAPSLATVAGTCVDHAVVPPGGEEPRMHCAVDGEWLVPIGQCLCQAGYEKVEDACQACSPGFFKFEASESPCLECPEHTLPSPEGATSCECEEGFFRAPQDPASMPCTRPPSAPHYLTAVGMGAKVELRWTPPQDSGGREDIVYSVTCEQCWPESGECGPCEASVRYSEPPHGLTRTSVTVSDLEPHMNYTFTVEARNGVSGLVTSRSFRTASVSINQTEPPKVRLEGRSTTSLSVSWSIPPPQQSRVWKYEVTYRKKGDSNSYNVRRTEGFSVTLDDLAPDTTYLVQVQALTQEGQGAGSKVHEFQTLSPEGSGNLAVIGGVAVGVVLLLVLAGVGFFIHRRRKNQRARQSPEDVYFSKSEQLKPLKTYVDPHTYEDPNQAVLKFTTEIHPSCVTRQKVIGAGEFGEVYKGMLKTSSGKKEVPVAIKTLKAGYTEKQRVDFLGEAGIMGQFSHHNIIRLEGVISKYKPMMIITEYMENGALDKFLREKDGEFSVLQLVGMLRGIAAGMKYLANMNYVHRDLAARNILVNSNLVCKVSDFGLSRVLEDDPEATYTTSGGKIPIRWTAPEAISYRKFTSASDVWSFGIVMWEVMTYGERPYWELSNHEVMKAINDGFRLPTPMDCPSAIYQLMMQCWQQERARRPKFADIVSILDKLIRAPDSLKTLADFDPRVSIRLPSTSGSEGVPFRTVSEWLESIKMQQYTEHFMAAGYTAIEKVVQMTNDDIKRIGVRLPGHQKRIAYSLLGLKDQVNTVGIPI
Sequence of SRSF protein kinase 3 (Homo sapiens) (Q9UPE1 whole entry): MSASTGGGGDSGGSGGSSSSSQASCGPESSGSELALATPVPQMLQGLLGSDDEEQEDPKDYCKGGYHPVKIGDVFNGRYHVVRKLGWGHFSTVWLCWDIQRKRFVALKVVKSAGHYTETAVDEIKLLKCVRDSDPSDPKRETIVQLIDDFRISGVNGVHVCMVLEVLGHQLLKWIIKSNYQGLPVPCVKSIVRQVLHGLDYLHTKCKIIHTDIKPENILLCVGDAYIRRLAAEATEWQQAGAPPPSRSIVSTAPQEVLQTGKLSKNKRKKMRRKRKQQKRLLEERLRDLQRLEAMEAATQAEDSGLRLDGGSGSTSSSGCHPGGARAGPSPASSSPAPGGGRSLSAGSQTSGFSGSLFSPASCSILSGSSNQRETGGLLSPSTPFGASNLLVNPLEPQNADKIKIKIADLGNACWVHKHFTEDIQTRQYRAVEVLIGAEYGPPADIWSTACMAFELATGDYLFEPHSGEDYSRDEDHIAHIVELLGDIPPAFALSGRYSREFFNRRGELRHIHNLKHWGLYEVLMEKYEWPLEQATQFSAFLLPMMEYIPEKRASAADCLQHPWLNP
Sequence of Angiopoietin-1 receptor (Homo sapiens) (Q02763 whole entry): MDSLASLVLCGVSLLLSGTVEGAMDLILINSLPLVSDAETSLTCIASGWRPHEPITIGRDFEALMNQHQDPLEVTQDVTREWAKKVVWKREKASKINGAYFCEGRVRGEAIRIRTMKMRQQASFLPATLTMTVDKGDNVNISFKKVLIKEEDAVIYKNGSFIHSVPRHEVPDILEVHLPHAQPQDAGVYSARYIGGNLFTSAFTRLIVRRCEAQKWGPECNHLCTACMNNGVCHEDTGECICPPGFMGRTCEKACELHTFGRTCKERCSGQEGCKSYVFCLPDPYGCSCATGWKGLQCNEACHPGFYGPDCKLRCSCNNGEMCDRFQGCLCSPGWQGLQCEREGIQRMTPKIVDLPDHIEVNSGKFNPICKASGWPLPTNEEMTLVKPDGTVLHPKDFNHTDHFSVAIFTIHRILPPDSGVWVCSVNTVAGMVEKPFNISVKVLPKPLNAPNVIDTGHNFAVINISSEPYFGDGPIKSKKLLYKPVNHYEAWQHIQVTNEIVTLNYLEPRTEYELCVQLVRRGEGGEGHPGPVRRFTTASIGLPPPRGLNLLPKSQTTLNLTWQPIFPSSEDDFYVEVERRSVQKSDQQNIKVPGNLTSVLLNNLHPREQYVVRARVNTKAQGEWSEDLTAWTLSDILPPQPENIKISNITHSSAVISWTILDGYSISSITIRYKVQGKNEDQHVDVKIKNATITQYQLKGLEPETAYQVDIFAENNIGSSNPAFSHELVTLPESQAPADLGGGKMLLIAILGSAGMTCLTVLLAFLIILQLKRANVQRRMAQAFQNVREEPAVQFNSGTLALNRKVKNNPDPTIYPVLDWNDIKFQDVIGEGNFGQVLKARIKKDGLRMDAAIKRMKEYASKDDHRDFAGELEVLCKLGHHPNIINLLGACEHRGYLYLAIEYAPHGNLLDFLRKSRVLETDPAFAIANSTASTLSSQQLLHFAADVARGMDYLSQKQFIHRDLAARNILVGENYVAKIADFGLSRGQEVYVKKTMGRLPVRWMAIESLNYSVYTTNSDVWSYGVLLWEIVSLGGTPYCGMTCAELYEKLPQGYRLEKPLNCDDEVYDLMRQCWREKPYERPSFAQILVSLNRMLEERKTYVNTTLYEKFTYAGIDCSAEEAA
Sequence of Mitogen-activated protein kinase 11 (Homo sapiens) (Q15759 whole entry): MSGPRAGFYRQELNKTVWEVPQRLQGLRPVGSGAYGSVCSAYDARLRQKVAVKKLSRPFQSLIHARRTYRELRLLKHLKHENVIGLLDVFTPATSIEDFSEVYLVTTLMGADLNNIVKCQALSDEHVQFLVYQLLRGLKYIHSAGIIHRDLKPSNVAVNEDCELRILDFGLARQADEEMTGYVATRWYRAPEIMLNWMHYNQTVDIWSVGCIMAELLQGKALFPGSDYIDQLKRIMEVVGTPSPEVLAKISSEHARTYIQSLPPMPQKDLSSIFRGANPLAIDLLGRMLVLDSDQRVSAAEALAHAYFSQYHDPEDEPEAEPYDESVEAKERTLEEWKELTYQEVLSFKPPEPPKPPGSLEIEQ
Sequence of Eukaryotic translation initiation factor 2-alpha kinase 3 (Q9NZJ5 whole entry): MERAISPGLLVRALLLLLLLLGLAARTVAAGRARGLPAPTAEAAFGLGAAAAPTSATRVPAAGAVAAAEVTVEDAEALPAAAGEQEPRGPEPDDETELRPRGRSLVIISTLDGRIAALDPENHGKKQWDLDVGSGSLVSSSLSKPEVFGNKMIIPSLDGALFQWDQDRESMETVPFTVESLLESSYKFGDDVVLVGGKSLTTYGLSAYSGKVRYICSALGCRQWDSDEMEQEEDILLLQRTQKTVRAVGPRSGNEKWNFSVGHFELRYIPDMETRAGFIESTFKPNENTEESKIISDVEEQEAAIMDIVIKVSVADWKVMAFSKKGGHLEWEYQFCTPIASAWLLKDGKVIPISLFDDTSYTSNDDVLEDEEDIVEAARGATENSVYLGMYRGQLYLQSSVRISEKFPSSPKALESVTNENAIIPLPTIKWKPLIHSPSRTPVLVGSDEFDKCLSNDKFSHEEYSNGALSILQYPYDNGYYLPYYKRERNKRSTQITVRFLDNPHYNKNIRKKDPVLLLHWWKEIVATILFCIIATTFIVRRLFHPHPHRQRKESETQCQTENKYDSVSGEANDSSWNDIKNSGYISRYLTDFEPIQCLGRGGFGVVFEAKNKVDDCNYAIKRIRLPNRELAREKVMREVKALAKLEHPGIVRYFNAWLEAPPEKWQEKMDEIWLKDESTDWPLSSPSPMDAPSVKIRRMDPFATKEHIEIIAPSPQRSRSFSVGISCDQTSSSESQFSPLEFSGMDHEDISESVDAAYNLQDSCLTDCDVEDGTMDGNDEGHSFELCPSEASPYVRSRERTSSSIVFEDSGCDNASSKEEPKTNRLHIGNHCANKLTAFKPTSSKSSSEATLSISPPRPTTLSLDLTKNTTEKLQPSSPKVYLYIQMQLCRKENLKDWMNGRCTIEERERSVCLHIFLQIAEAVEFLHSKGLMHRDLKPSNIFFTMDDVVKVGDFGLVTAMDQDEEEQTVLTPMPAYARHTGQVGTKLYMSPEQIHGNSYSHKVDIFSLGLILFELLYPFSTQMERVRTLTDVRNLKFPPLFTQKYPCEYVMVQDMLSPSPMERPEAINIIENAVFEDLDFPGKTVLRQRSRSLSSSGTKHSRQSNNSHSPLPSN

% of control [1]: 83%
SMILES: CC(=O)c1cc(-c2ccccc2OCC2CC2)c2ncccn12

SMILES: CNC(=O)Nc1ccc(-c2nc(N3CC4CCC(C3)O4)c3cnn(C4CCC5(CC4)OCCO5)c3n2)cc1
% of control [2]: 81% | % of control [3]: 100%

SMILES: COCC(=O)NC/C=C/c1ccc2ncnc(Nc3ccc(Oc4ccc(C)nc4)c(C)c3)c2c1 [CP-724714]
% of control [4]: 100%

% of control [5]: 103%
SMILES: CC(=O)Nc1cccc(-n2c(=O)n(C3CC3)c(=O)c3c(Nc4ccc(I)cc4F)n(C)c(=O)c(C)c32)c1

SMILES: CN(C)C/C=C/C(=O)Nc1ccc(C(=O)N2CCCC(Nc3ncc(Cl)c(-c4c[nH]c5ccccc45)n3)C2)cc1 (stereo not given)
% of control [6]: 81%

SMILES: CN(C)CCOc1ccc(-c2nc(-c3ccncc3)c(-c3ccc4c(c3)CC/C4=N\O)[nH]2)cc1
% of control [7]: 91%

pIC50 [8]: < 5.00
SMILES: CCc1cccc(CC)c1NC(=O)c1nn(C)c2c1CCc1cnc(Nc3ccc(C(=O)NC4CCN(C)CC4)cc3OC(F)(F)F)nc1-2

SMILES: O[C@H]1CC[C@H](Nc2ncc3nc(Nc4c(F)cc(F)cc4F)n([C@H]4CCOC4)c3n2)CC1
% of control [9]: 100%

SMILES: N#Cc1cccc(-c2c[nH]c3ncnc(N4CCOCC4)c23)c1
% of control [10]: 19%
